Reference: ChEMBL document CHEMBL1201862, “PubChem BioAssay data set” (2004)
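Where inhibition never reached the appropriate level, the endpoint shown equals the highest concentration tested. Otherwise, values were interpolated linearly from a five-concentration, 48-hour dose response in 96-well plates. GI50: concentration for 50% inhibition of growth.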 The source made the active and inactive calls. No stated cut-off is given here; in the data, active = GI50 up to about 1.1 µM and inactive = higher.

Columns and labels:
Assay in all cases: DTP human tumour cell line panel, 48 h
K562 = system: K562
SF-268 = system: SF-268
EKVX = system: EKVX
Malme-3M = system: Malme-3M
NCI-H23 = system: NCI-H23
UO-31 = system: UO-31
LOX IMVI = system: LOX IMVI
HOP-92 = system: HOP-92
MDA-MB-435 = system: MDA-MB-435
OVCAR-8 = system: OVCAR-8
OVCAR-5 = system: OVCAR-5
COLO 205 = system: COLO 205
A498 = system: A498
SF-539 = system: SF-539
UACC-257 = system: UACC-257
NCI/ADR-RES = system: NCI/ADR-RES
SNB-75 = system: SNB-75
MOLT-4 = system: MOLT-4
SW-620 = system: SW-620
OVCAR-4 = system: OVCAR-4
SK-MEL-2 = system: SK-MEL-2
NCI-H460 = system: NCI-H460
IGROV-1 = system: IGROV-1
DU-145 = system: DU-145
T47D = system: T47D
CCRF-CEM = system: CCRF-CEM
HT-29 = system: HT-29
M14 = system: M14
PC-3 = system: PC-3
MCF7 = system: MCF7
RXF 393 = system: RXF 393
786-0 = system: 786-0
TK-10 = system: TK-10
SK-MEL-28 = system: SK-MEL-28
BT-549 = system: BT-549
UACC-62 = system: UACC-62
HOP-62 = system: HOP-62
HCT-116 = system: HCT-116
RPMI-8226 = system: RPMI-8226
ACHN = system: ACHN
NCI-H226 = system: NCI-H226
HCC 2998 = system: HCC 2998
NCI-H522 = system: NCI-H522
HCT-15 = system: HCT-15
KM12 = system: KM12
SNB-19 = system: SNB-19
MDA-MB-231 = system: MDA-MB-231
A549 = system: A549
U-251 = system: U-251
SR = system: SR
SK-MEL-5 = system: SK-MEL-5
CAKI-1 = system: CAKI-1
OVCAR-3 = system: OVCAR-3
HL-60 = system: HL-60
SF-295 = system: SF-295
SN12C = system: SN12C
Hs-578T = system: Hs-578T

Compound: CCN(CC)CCNc1ccc(/N=N/c2ccc(S(N)(=O)=O)cc2)c2ccccc12
- GI50 (K562): 3.13 µM (inactive)
- GI50 (SF-268): 10.1 µM (inactive)
- GI50 (EKVX): 19 µM (inactive)
- GI50 (Malme-3M): 15.7 µM (inactive)
- GI50 (NCI-H23): 23.2 µM (inactive)
- GI50 (UO-31): 5.56 µM (inactive)
- GI50 (LOX IMVI): 2.65 µM (inactive)
- GI50 (HOP-92): 14.9 µM (inactive)
- GI50 (MDA-MB-435): 7.35 µM (inactive)
- GI50 (OVCAR-8): 5.82 µM (inactive)
- GI50 (OVCAR-5): 23 µM (inactive)
- GI50 (COLO 205): 4.24 µM (inactive)
- GI50 (A498): 14.1 µM (inactive)
- GI50 (SF-539): 3.63 µM (inactive)
- GI50 (UACC-257): 14.9 µM (inactive)
- GI50 (NCI/ADR-RES): 24.2 µM (inactive)
- GI50 (SNB-75): 10.3 µM (inactive)
- GI50 (MOLT-4): 6.25 µM (inactive)
- GI50 (SW-620): 3.3 µM (inactive)
- GI50 (OVCAR-4): 12.9 µM (inactive)
- GI50 (SK-MEL-2): 5.9 µM (inactive)
- GI50 (NCI-H460): 7.4 µM (inactive)
- GI50 (IGROV-1): 13.1 µM (inactive)
- GI50 (DU-145): 12 µM (inactive)
- GI50 (T47D): 2.55 µM (inactive)
- GI50 (CCRF-CEM): 4.51 µM (inactive)
- GI50 (HT-29): 5.96 µM (inactive)
- GI50 (M14): 3.72 µM (inactive)
- GI50 (PC-3): 6.93 µM (inactive)
- GI50 (MCF7): 6.73 µM (inactive)
- GI50 (RXF 393): 3.61 µM (inactive)
- GI50 (786-0): 4.62 µM (inactive)
- GI50 (TK-10): 19.1 µM (inactive)
- GI50 (SK-MEL-28): 11.5 µM (inactive)
- GI50 (BT-549): 13.6 µM (inactive)
- GI50 (UACC-62): 8.61 µM (inactive)
- GI50 (HOP-62): 6.73 µM (inactive)
- GI50 (HCT-116): 3.72 µM (inactive)
- GI50 (RPMI-8226): 3.37 µM (inactive)
- GI50 (ACHN): 13 µM (inactive)
- GI50 (NCI-H226): 23.6 µM (inactive)
- GI50 (HCC 2998): 8.75 µM (inactive)
- GI50 (NCI-H522): 14.9 µM (inactive)
- GI50 (HCT-15): 4.52 µM
- GI50 (KM12): 6.01 µM (inactive)
- GI50 (SNB-19): 11.9 µM (inactive)
- GI50 (MDA-MB-231): 4.33 µM (inactive)
- GI50 (A549): 4.99 µM (inactive)
- GI50 (U-251): 4.61 µM (inactive)
- GI50 (SR): 2.1 µM (inactive)
- GI50 (SK-MEL-5): 5.06 µM (inactive)
- GI50 (CAKI-1): 13.7 µM (inactive)
- GI50 (OVCAR-3): 2.43 µM (inactive)
- GI50 (HL-60): 14.5 µM (inactive)
- GI50 (SF-295): 4.3 µM (inactive)
- GI50 (SN12C): 8.89 µM (inactive)
- GI50 (Hs-578T): 15.5 µM (inactive)
